From patent publication US10795272B2, “Triphenylamine derivative, and charge transport material and electrophotographic photoreceptor using the same” (TAKASAGO INTERNATIONAL CORPORATION, priority 2016, dated 2020)

Columns and labels:
[1] = Solubility in tetrahydrofuran; format: physicochemical; details: 25° C.; weight completely dissolved in 1 g of tetrahydrofuran
Description: Compound (1-1) was dissolved in 1 g of tetrahydrofuran at 25° C.
In the same manner as in Example 14, experiments were conducted by using Compound (1-4) or (1-9).
In the same manner as in Example 14, experiments were conducted by using Comparative Compound (5) which was a compound described in Japanese Patent Application Publication No. Hei 3-149560.

Row | Structure (SMILES) | Solubility [1] [g/g tetrahydrofuran] | melting point [°C]
1 | C(=Cc1ccc(N(c2ccccc2)c2ccc(C=C(c3ccccc3)c3ccccc3)cc2)cc1)c1ccc(C=Cc2ccc(N(c3ccccc3)c3ccc(C=C(c4ccccc4)c4ccccc4)cc3)cc2)cc1 [Comparative Compound (5), reference compound] | 0.03 | –
2 | Cc1ccc(N(c2ccc(/C=C/c3ccc(/C=C/C=C(c4ccccc4)c4ccccc4)cc3)cc2)c2ccc(/C=C/c3ccc(/C=C/c4ccc(N(c5ccc(/C=C/c6ccc(/C=C/C=C(c7ccccc7)c7ccccc7)cc6)cc5)c5ccc(C)cc5C)cc4)cc3)cc2)c(C)c1 [Compound (1-7)] | – | 161 to 163
3 | Cc1ccc(C(=C/C=C/c2ccc(/C=C/c3ccc(N(c4ccc(/C=C/c5ccc(/C=C/c6ccc(N(c7ccc(/C=C/c8ccc(/C=C/C=C(c9ccc(C)cc9)c9ccc(C)cc9)cc8)cc7)c7ccc(C)cc7C)cc6)cc5)cc4)c4ccc(C)cc4C)cc3)cc2)c2ccc(C)cc2)cc1 [Compound (1-17)] | – | 255 to 257
4 | C(/C=C/c1ccc(/C=C/c2ccc(N(c3ccccc3)c3ccc(/C=C/c4ccc(/C=C/c5ccc(N(c6ccccc6)c6ccc(/C=C/c7ccc(/C=C/C=C(c8ccccc8)c8ccccc8)cc7)cc6)cc5)cc4)cc3)cc2)cc1)=C(c1ccccc1)c1ccccc1 [Compound (1-4)] | 0.13 | 162 to 164
5 | Cc1ccc(N(c2ccc(/C=C/c3ccc(/C=C/C=C(c4ccccc4)c4ccccc4)cc3)cc2)c2ccc(/C=C/c3ccc(/C=C/c4ccc(N(c5ccc(C)cc5)c5ccc(/C=C/c6ccc(/C=C/C=C(c7ccccc7)c7ccccc7)cc6)cc5)cc4)cc3)cc2)cc1 [Compound (1-1)] | 0.16 | 178 to 180
6 | COc1ccc(N(c2ccc(/C=C/c3ccc(/C=C/C=C(c4ccccc4)c4ccccc4)cc3)cc2)c2ccc(/C=C/c3ccc(/C=C/c4ccc(N(c5ccc(/C=C/c6ccc(/C=C/C=C(c7ccccc7)c7ccccc7)cc6)cc5)c5ccc(OC)cc5)cc4)cc3)cc2)cc1 [Compound (1-9)] | 0.14 | 222 to 224
